{"source": "ChEMBL document CHEMBL4350986", "about": "“Triptolide: Medicinal chemistry, chemical biology and clinical progress” (Eur J Med Chem, 2019)", "key": {"HCT-116": {"system": "HCT-116", "assay": "Cytotoxicity against human HCT116 cells assessed as decrease in cell viability", "assay_type": "functional, cell-based"}, "HeLa [1]": {"system": "HeLa", "assay": "Cytotoxicity against human HeLa cells assessed as decrease in cell viability", "assay_type": "functional, cell-based"}, "MDCK": {"system": "MDCK", "assay": "Cytotoxicity against MDCK cells assessed as decrease in cell viability", "assay_type": "functional, cell-based", "conditions": "Canis lupus familiaris"}, "Jurkat": {"system": "Jurkat", "assay": "Cytotoxicity against human Jurkat cells assessed as decrease in cell viability", "assay_type": "functional, cell-based"}, "NIH3T3": {"system": "NIH3T3", "assay": "Cytotoxicity against mouse NIH/3T3 cells assessed as decrease in cell viability", "assay_type": "functional, cell-based"}, "[2]": {"assay": "Cytotoxicity against human Bre01 cells assessed as decrease in cell viability", "assay_type": "functional, cell-based"}, "[3]": {"assay": "Cytotoxicity against human Col-06 cells assessed as decrease in cell viability", "assay_type": "functional, cell-based"}, "[4]": {"assay": "Cytotoxicity against human SK-MEL-8 cells assessed as decrease in cell viability", "assay_type": "functional, cell-based"}, "[5]": {"assay": "Cytotoxicity against human OVCAR1 cells assessed as decrease in cell viability", "assay_type": "functional, cell-based"}, "[6]": {"assay": "Cytotoxicity against human Re-01 cells assessed as decrease in cell viability", "assay_type": "functional, cell-based"}, "HL-60 [7]": {"system": "HL-60", "assay": "Cytotoxicity against human HL60 cells assessed as decrease in cell viability", "assay_type": "functional, cell-based"}, "P388": {"system": "P388", "assay": "Cytotoxicity against mouse P388 cells assessed as decrease in cell viability after 72 hrs by MTT assay", "assay_type": "functional, cell-based", "conditions": "P388, 72 h"}, "HL-60 [8]": {"system": "HL-60", "assay": "Cytotoxicity against human HL60 cells assessed as decrease in cell viability after 72 hrs by MTT assay", "assay_type": "functional, cell-based", "conditions": "HL-60, 72 h"}, "A549": {"system": "A549", "assay": "Cytotoxicity against human A549 cells assessed as decrease in cell viability after 72 hrs by MTT assay", "assay_type": "functional, cell-based", "conditions": "A549, 72 h"}, "MKN-28": {"system": "MKN-28", "assay": "Cytotoxicity against human MKN28 cells assessed as decrease in cell viability after 72 hrs by MTT assay", "assay_type": "functional, cell-based", "conditions": "MKN-28, 72 h"}, "MCF7 [9]": {"system": "MCF7", "assay": "Cytotoxicity against human MCF7 cells assessed as decrease in cell viability after 72 hrs by MTT assay", "assay_type": "functional, cell-based", "conditions": "MCF7, 72 h"}, "KB": {"system": "KB", "assay": "Cytotoxicity against human KB cells assessed as decrease in cell viability by MTT assay", "assay_type": "functional, cell-based"}, "BGC-823": {"system": "BGC-823", "assay": "Cytotoxicity against human BGC823 cells assessed as decrease in cell viability by MTT assay", "assay_type": "functional, cell-based"}, "MCF7 [10]": {"system": "MCF7", "assay": "Cytotoxicity against human MCF7 cells assessed as decrease in cell viability by MTT assay", "assay_type": "functional, cell-based"}, "HeLa [11]": {"system": "HeLa", "assay": "Cytotoxicity against human HeLa cells assessed as decrease in cell viability by MTT assay", "assay_type": "functional, cell-based"}, "HL-60 [12]": {"system": "HL-60", "assay": "Cytotoxicity against human HL60 cells assessed as decrease in cell viability by MTT assay", "assay_type": "functional, cell-based"}, "[13]": {"assay": "Toxicity in rat ear inflammation model", "conditions": "in vivo"}, "[14]": {"assay": "Half life of the compound", "assay_type": "physicochemical"}}, "data": [{"smiles": "CC(C)[C@]12O[C@H]1[C@@H]1O[C@]13[C@]1(O[C@H]1C[C@H]1C4=C(CC[C@@]13C)C(=O)OC4)[C@@H]2N", "values": [{"measurement": "IC50", "setting": "HCT-116", "value": 772, "unit": "nM"}]}, {"smiles": "C[C@]12CCC3=C(COC3=O)[C@@H]1C[C@@H]1O[C@@]13C(=O)[C@H]1O[C@H]1[C@@H]1O[C@]123", "values": [{"measurement": "IC50", "setting": "HCT-116", "value": 537, "unit": "nM"}]}, {"smiles": "CC(C)[C@]12O[C@H]1[C@@H]1O[C@]13[C@]1(O[C@H]1C[C@H]1C4=C(CC[C@@]13C)C(=O)OC4)[C@@H]2O", "note": "[TRIPTOLIDE]", "values": [{"measurement": "IC50", "setting": "HCT-116", "value": 4.7, "unit": "nM"}, {"measurement": "IC50", "setting": "HeLa [1]", "value": 87, "unit": "nM"}, {"measurement": "IC50", "setting": "MDCK", "value": 1200, "unit": "nM"}, {"measurement": "IC50", "setting": "Jurkat", "value": 140, "unit": "nM"}, {"measurement": "IC50", "setting": "NIH3T3", "value": 50, "unit": "nM"}, {"measurement": "IC50", "setting": "[2]", "value": 0.04, "unit": "µg/mL"}, {"measurement": "IC50", "setting": "[3]", "value": 0.02, "unit": "µg/mL"}, {"measurement": "IC50", "setting": "[4]", "value": 0.02, "unit": "µg/mL"}, {"measurement": "IC50", "setting": "[5]", "value": 0.006, "unit": "µg/mL"}, {"measurement": "IC50", "setting": "[6]", "value": 0.03, "unit": "µg/mL"}]}, {"smiles": "CC[C@@H](CO)[C@]12O[C@H]1[C@@H]1O[C@@]13[C@@]1(C)CCC4=C(COC4=O)[C@@H]1C[C@@H]1O[C@@]13C2=O", "values": [{"measurement": "IC50", "setting": "HeLa [1]", "value": 2, "unit": "nM"}, {"measurement": "IC50", "setting": "MDCK", "value": 270, "unit": "nM"}, {"measurement": "IC50", "setting": "Jurkat", "value": "< 40", "unit": "nM"}, {"measurement": "IC50", "setting": "NIH3T3", "value": 10, "unit": "nM"}]}, {"smiles": "CC(C)C1=C[C@H]2O[C@]23[C@@]2(C)CCC4=C(COC4=O)[C@@H]2C[C@@H]2O[C@@]23C1=O", "values": [{"measurement": "IC50", "setting": "Jurkat", "value": 16000, "unit": "nM"}, {"measurement": "IC50", "setting": "HL-60 [7]", "value": 16000, "unit": "nM"}]}, {"smiles": "CC(C)[C@]12O[C@H]1[C@@H]1O[C@]13[C@]1(O[C@H]1C[C@@]1(O)C4=C(CC[C@]31C)C(=O)OC4)[C@@H]2O", "values": [{"measurement": "IC50", "setting": "P388", "value": "0.04 to 0.2", "unit": "nM"}, {"measurement": "IC50", "setting": "HL-60 [8]", "value": "0.04 to 0.2", "unit": "nM"}, {"measurement": "IC50", "setting": "A549", "value": "0.04 to 0.2", "unit": "nM"}, {"measurement": "IC50", "setting": "MKN-28", "value": "0.04 to 0.2", "unit": "nM"}, {"measurement": "IC50", "setting": "MCF7 [9]", "value": "0.04 to 0.2", "unit": "nM"}, {"measurement": "IC50", "setting": "KB", "value": 300, "unit": "nM"}, {"measurement": "IC50", "setting": "BGC-823", "value": 1500, "unit": "nM"}, {"measurement": "IC50", "setting": "MCF7 [10]", "value": 1050, "unit": "nM"}, {"measurement": "IC50", "setting": "HeLa [11]", "value": 340, "unit": "nM"}, {"measurement": "IC50", "setting": "HL-60 [12]", "value": 470, "unit": "nM"}]}, {"smiles": "CC(C)[C@]1(O)[C@H](O)[C@@H]2O[C@]23[C@]2(O[C@H]2C[C@H]2C4=C(CC[C@@]23C)C(=O)OC4)[C@@H]1O", "values": [{"measurement": "LD50", "setting": "[13]", "value": "> 500", "unit": "mg/kg"}]}, {"smiles": "C[C@@H]([C@@H]1CO1)[C@]12O[C@H]1[C@@H]1O[C@@]13[C@@]1(C)CCC4=C(COC4=O)[C@@H]1C[C@@H]1O[C@@]13C2=O", "values": [{"measurement": "IC50", "setting": "NIH3T3", "value": 40, "unit": "nM"}]}, {"smiles": "CC(C)[C@]1(O)[C@H](N=C=S)[C@@H]2O[C@]23[C@]2(O[C@H]2C[C@H]2C4=C(CC[C@@]23C)C(=O)OC4)[C@@H]1O", "values": [{"measurement": "IC50", "setting": "[2]", "value": 0.055, "unit": "µg/mL"}, {"measurement": "IC50", "setting": "[3]", "value": 0.03, "unit": "µg/mL"}, {"measurement": "IC50", "setting": "[4]", "value": 0.09, "unit": "µg/mL"}, {"measurement": "IC50", "setting": "[5]", "value": 0.02, "unit": "µg/mL"}, {"measurement": "IC50", "setting": "[6]", "value": 0.06, "unit": "µg/mL"}]}, {"smiles": "C[C@]12CCC3=C(COC3=O)[C@@H]1C[C@@H]1O[C@@]13[C@@H](O)[C@@]1(CCO)O[C@H]1[C@@H]1O[C@@]132", "values": [{"measurement": "IC50", "setting": "HCT-116", "value": 70.7, "unit": "nM"}]}, {"smiles": "CC(C)[C@]12O[C@H]1[C@@H]1O[C@]13[C@]1(O[C@H]1C[C@H]1C4=C(CC[C@@]13C)C(=O)O[C@H]4O)[C@@H]2O", "values": [{"measurement": "IC50", "setting": "KB", "value": 46500, "unit": "nM"}, {"measurement": "IC50", "setting": "HL-60 [12]", "value": 52600, "unit": "nM"}]}, {"smiles": "CC(C)[C@]12O[C@H]1[C@@H]1O[C@]13[C@]1(O[C@H]1C[C@H]1C4=C(CC[C@@]13C)C(=O)OC4)[C@@H]2OCOP(=O)([O-])[O-].[Na+].[Na+]", "note": "[MINNELIDE]", "values": [{"measurement": "half-life", "setting": "[14]", "value": 2, "unit": "min"}]}, {"smiles": "CC(C)C1=C[C@@H]2O[C@@]23[C@@]2(C)CCC4=C(COC4=O)[C@@H]2C[C@@H]2O[C@@]23C1=O", "values": [{"measurement": "IC50", "setting": "Jurkat", "value": 31000, "unit": "nM"}, {"measurement": "IC50", "setting": "HL-60 [7]", "value": 16000, "unit": "nM"}]}, {"smiles": "C[C@]12CCC3=C(COC3=O)[C@@H]1C[C@@H]1O[C@@]13C(=O)[C@@]1(CCCC(=O)O)O[C@H]1[C@@H]1O[C@]123", "values": [{"measurement": "IC50", "setting": "HCT-116", "value": 560, "unit": "nM"}]}, {"smiles": "C[C@]12CCC3=C(COC3=O)[C@@H]1C[C@@H]1O[C@@]13[C@H](O)[C@@]1(CCO)O[C@H]1[C@@H]1O[C@@]132", "values": [{"measurement": "IC50", "setting": "HCT-116", "value": 74.7, "unit": "nM"}]}, {"smiles": "CCCNC(=O)OCCC[C@]12O[C@H]1[C@@H]1O[C@@]13[C@@]1(C)CCC4=C(COC4=O)[C@@H]1C[C@@H]1O[C@@]13C2=O", "values": [{"measurement": "IC50", "setting": "HCT-116", "value": 8.4, "unit": "nM"}]}, {"smiles": "CC(C)[C@]12O[C@H]1[C@@H]1O[C@@]13[C@@]1(C)[C@H](O)CC4=C(COC4=O)[C@@H]1C[C@@H]1O[C@@]13[C@@H]2O", "values": [{"measurement": "IC50", "setting": "KB", "value": 120, "unit": "nM"}, {"measurement": "IC50", "setting": "BGC-823", "value": 7650, "unit": "nM"}, {"measurement": "IC50", "setting": "MCF7 [10]", "value": 870, "unit": "nM"}, {"measurement": "IC50", "setting": "HeLa [11]", "value": 320, "unit": "nM"}, {"measurement": "IC50", "setting": "HL-60 [12]", "value": 70, "unit": "nM"}]}, {"smiles": "CC(C)[C@]12O[C@H]1[C@@H]1O[C@]13[C@]1(O[C@H]1C[C@H]1C4=C(CC[C@@]13C)C(=O)OC4)[C@@H]2NC=O", "values": [{"measurement": "IC50", "setting": "HCT-116", "value": 354, "unit": "nM"}]}]}
